Assay results published in US9144239B2, “Macrocyclic picolinamides as fungicides” (DOW AGROSCIENCES LLC, priority 2012, dated 2015).

Legend:
Format in all cases: in vivo
[1] = system: Glomerella lagenarium; anamorph: Colletotrichum lagenarium; test: Fungicidal activity: cucumber anthracnose (COLLLA); conditions: Colletotrichum orbiculare, 24 h, 1 Day Protectant, read-out: Disease Control COLLLA 1DP
Description: Technical grades of materials were dissolved in acetone, which were then mixed with nine volumes of water containing 110 ppm Triton X-100. The fungicide solutions were applied onto wheat seedlings using an automated booth sprayer to run-off. All sprayed plants were allowed to air dry prior to further handling. Wheat plants (variety Yuma) were grown from seed in a greenhouse in 50% mineral soil/50% soil-less Metro mix until the first leaf was fully emerged, with 7-10 seedlings per pot. These plants were inoculated with an aqueous spore suspension of Septoria tritici either prior to or after fungicide treatments. After inoculation the plants were kept in 100% relative humidity (one day in a dark dew chamber followed by two to three days in a lighted dew chamber at 20° C.) to permit spores to germinate and infect the leaf. The plants were then transferred to a greenhouse set at 20° C. for disease to develop. When disease symptoms were fully expressed on the 1st leaves of untreated plants, infection levels were assessed on a scale of 0 to 100 percent disease severity. Percent disease control was calculated using the ratio of disease severity on treated plants relative to untreated plants. Evaluation of Fungicidal Activity: Cucumber Anthracnose (Glomerella lagenarium; Anamorph: Colletotrichum lagenarium; Bayer Code COLLLA) Cucumber seedlings (variety Bush Pickle) were propagated in soil-less Metro mix, with each pot having one plant, and used in the test when 12 to 14 days old. Test plants were inoculated with an aqueous spore suspension of Colletotrichum lagenarium 24 hr after fungicide treatments. After inoculation the plants were kept in a dew room at 22° C. with 100% relative humidity for 48 hr to permit spores to germinate and infect the leaf. The plants were then transferred to a growth room set at 22° C. for disease to develop. Fungicide formulation, application and disease assessment on the sprayed leaves followed the procedures as described in the Example A.

Leptosphaeria nodorum = test: Fungicidal activity: wheat glume blotch (LEPTNO); conditions: Parastagonospora nodorum, 24 h, 1 Day Protectant, read-out: Disease Control LEPTNO 1 DP
Description: Technical grades of materials were dissolved in acetone, which were then mixed with nine volumes of water containing 110 ppm Triton X-100. The fungicide solutions were applied onto wheat seedlings using an automated booth sprayer to run-off. All sprayed plants were allowed to air dry prior to further handling. Wheat plants (variety Yuma) were grown from seed in a greenhouse in 50% mineral soil/50% soil-less Metro mix until the first leaf was fully emerged, with 7-10 seedlings per pot. These plants were inoculated with an aqueous spore suspension of Septoria tritici either prior to or after fungicide treatments. After inoculation the plants were kept in 100% relative humidity (one day in a dark dew chamber followed by two to three days in a lighted dew chamber at 20° C.) to permit spores to germinate and infect the leaf. The plants were then transferred to a greenhouse set at 20° C. for disease to develop. When disease symptoms were fully expressed on the 1st leaves of untreated plants, infection levels were assessed on a scale of 0 to 100 percent disease severity. Percent disease control was calculated using the ratio of disease severity on treated plants relative to untreated plants. Evaluation of Fungicidal Activity: Wheat Glume Blotch (Leptosphaeria nodorum; Bayer Code […]) Wheat plants (variety Yuma) were grown from seed in a greenhouse in 50% mineral soil/50% soil-less Metro mix until the first leaf was fully emerged, with 7-10 seedlings per pot. These plants were inoculated with an aqueous spore suspension of Leptosphaeria nodorum 24 hr after fungicide treatments. After inoculation the plants were kept in 100% relative humidity (one day in a dark dew chamber followed by two days in a lighted dew chamber at 20° C.) to permit spores to germinate and infect the leaf. The plants were then transferred to a greenhouse set at 20° C. for disease to develop. Fungicide formulation, application and disease assessment followed the procedures as described in the Example A.

Uncinula necator = test: Fungicidal activity: grape powdery mildew (UNCINE); conditions: Erysiphe necator, 24 h, 1 Day Protectant, read-out: Disease Control UNCINE 1 DP
Description: Technical grades of materials were dissolved in acetone, which were then mixed with nine volumes of water containing 110 ppm Triton X-100. The fungicide solutions were applied onto wheat seedlings using an automated booth sprayer to run-off. All sprayed plants were allowed to air dry prior to further handling. Wheat plants (variety Yuma) were grown from seed in a greenhouse in 50% mineral soil/50% soil-less Metro mix until the first leaf was fully emerged, with 7-10 seedlings per pot. These plants were inoculated with an aqueous spore suspension of Septoria tritici either prior to or after fungicide treatments. After inoculation the plants were kept in 100% relative humidity (one day in a dark dew chamber followed by two to three days in a lighted dew chamber at 20° C.) to permit spores to germinate and infect the leaf. The plants were then transferred to a greenhouse set at 20° C. for disease to develop. When disease symptoms were fully expressed on the 1st leaves of untreated plants, infection levels were assessed on a scale of 0 to 100 percent disease severity. Percent disease control was calculated using the ratio of disease severity on treated plants relative to untreated plants. Evaluation of Fungicidal Activity: Grape Powdery Mildew (Uncinula necator; Bayer Code […]) Grape seedlings (variety Carignane) were grown in soil-less Metro mix, with one plant per pot, and used in the test when approximately one month old. Plants were inoculated 24 hr after fungicide treatment by shaking spores from infected leaves over test plants. Plants were maintained in a greenhouse set at 20° C. until disease was fully developed. Fungicide formulation, application and disease assessment on the sprayed leaves followed the procedures as described in the Example A.

[2] = system: Blumeria graminis f.sp. hordei; synonym: Erysiphe graminis f.sp. hordei; test: Fungicidal activity: barley powdery mildew (ERYSGH); conditions: 24 h, 1 Day Protectant, read-out: Disease Control ERYSGH 1DP
Description: Technical grades of materials were dissolved in acetone, which were then mixed with nine volumes of water containing 110 ppm Triton X-100. The fungicide solutions were applied onto wheat seedlings using an automated booth sprayer to run-off. All sprayed plants were allowed to air dry prior to further handling. Wheat plants (variety Yuma) were grown from seed in a greenhouse in 50% mineral soil/50% soil-less Metro mix until the first leaf was fully emerged, with 7-10 seedlings per pot. These plants were inoculated with an aqueous spore suspension of Septoria tritici either prior to or after fungicide treatments. After inoculation the plants were kept in 100% relative humidity (one day in a dark dew chamber followed by two to three days in a lighted dew chamber at 20° C.) to permit spores to germinate and infect the leaf. The plants were then transferred to a greenhouse set at 20° C. for disease to develop. When disease symptoms were fully expressed on the 1st leaves of untreated plants, infection levels were assessed on a scale of 0 to 100 percent disease severity. Percent disease control was calculated using the ratio of disease severity on treated plants relative to untreated plants. Evaluation of Fungicidal Activity: Barley Powdery Mildew (Blumeria graminis f.sp. hordei; Synonym: Erysiphe graminis f.sp. hordei; Bayer Code […]) Barley seedlings (variety Harrington) were propagated in soil-less Metro mix, with each pot having 8 to 12 plants, and used in the test when first leaf was fully emerged. Test plants were inoculated by dusting with infected stock plants 24 hr after fungicide treatments. After inoculation the plants were kept in a greenhouse set at 20° C. for disease to develop. Fungicide formulation, application and disease assessment on the sprayed leaves followed the procedures as described in the Example A.

| SMILES | pest or weed control at 100 ppm [1] [%] | pest or weed control at 100 ppm (Leptosphaeria nodorum) [%] | pest or weed control at 100 ppm (Uncinula necator) [%] | pest or weed control at 100 ppm [2] [%] |
| --- | --- | --- | --- | --- |
| CCCO[C@H]1[C@H](C)OC(=O)[C@@H](NC(=O)c2nccc(OC)c2OCOC(C)=O)COC[C@@H]1Oc1ccccc1 [Compound 222] | 80 to 100 |  |  |  |
| COc1ccnc(C(=O)N[C@H]2COC[C@H](Oc3ccccc3)[C@@H](OCC(C)C)[C@H](C)OC2=O)c1OCOC(C)=O [Compound 86] | 80 to 100 | 80 to 100 | 80 to 100 | 0 to 80 |
| CCC(C)(C)O[C@H]1COC[C@H](NC(=O)c2nccc(OC)c2OCOC(C)=O)C(=O)O[C@@H](C)[C@@H]1OCC(C)C [Compound 78] | 80 to 100 | 80 to 100 | 80 to 100 | 0 to 80 |
| COc1ccnc(C(=O)N[C@H]2COC[C@H](OC)[C@@H](OC)[C@H](C)OC2=O)c1OCOC(C)=O [Compound 65] | 0 to 80 | 0 to 80 | 0 to 80 |  |
| COc1ccnc(C(=O)N[C@H]2COC[C@H](OCC(C)C)[C@@H](OCC(C)C)[C@H](C)OC2=O)c1OCOC(C)=O [Compound 3, (2-((3S,7S,8S,9S)-7,8-diisobutoxy-9-methyl-2-oxo-1,5-dioxonan-3-ylcarbamoyl)-4-methoxypyridin-3-yloxy)methyl] | 80 to 100 | 80 to 100 | 80 to 100 | 80 to 100 |
| COc1ccnc(C(=O)NC2COC[C@H](OCc3ccccc3)[C@@H](OCc3ccccc3)[C@H](C)OC2=O)c1OCOC(C)=O (some centres unmarked) [Compound 12] | 80 to 100 | 80 to 100 | 0 to 80 | 0 to 80 |
| CCCCO[C@H]1COC[C@H](NC(=O)c2nccc(OC)c2OCOC(C)=O)C(=O)O[C@@H](C)[C@@H]1OCC(F)F [Compound 55] | 80 to 100 | 80 to 100 | 0 to 80 |  |
| COc1ccnc(C(=O)N[C@H]2COC[C@H](OCCCC(F)(F)F)[C@@H](OCCCC(F)(F)F)[C@H](C)OC2=O)c1OCOC(C)=O [Compound 68] | 80 to 100 | 80 to 100 | 0 to 80 | 0 to 80 |
| COc1ccnc(C(=O)N[C@H]2COC[C@H](Oc3ccc(F)cc3)[C@@H](Oc3ccc(F)cc3)[C@H](C)OC2=O)c1OCOC(C)=O [Compound 231] | 80 to 100 | 80 to 100 | 80 to 100 | 0 to 80 |
| COc1ccnc(C(=O)N[C@H]2COC[C@H](OCC(C)C)[C@@H](OC3CCCCC3)[C@H](C)OC2=O)c1OCOC(C)=O [Compound 77] | 80 to 100 | 80 to 100 | 80 to 100 | 0 to 80 |
| COc1ccnc(C(=O)N[C@H]2COC[C@H](OC(=O)C(C)C)[C@@H](OC(=O)C(C)C)[C@H](C)OC2=O)c1OCOC(C)=O [Compound 57] | 80 to 100 | 0 to 80 | 0 to 80 | 0 to 80 |
| COc1ccnc(C(=O)N[C@H]2COC[C@H](OCC(C)C)[C@@H](OCC(C)C)[C@H](C)OC2=O)c1OCOC(=O)C(C)C [Compound 2] |  |  |  | 80 to 100 |
| CCCCO[C@H]1COC[C@H](NC(=O)c2nccc(OC)c2OCOC(C)=O)C(=O)O[C@@H](C)[C@@H]1OCCOC [Compound 54] | 80 to 100 | 80 to 100 | 0 to 80 | 0 to 80 |
| COc1ccnc(C(=O)N[C@H]2COC[C@H](Oc3ccc(F)cc3)[C@@H](Oc3ccc(F)cc3)[C@H](C)OC2=O)c1OC(C)=O [Compound 229, 2-(((3S,7S,8S,9S)-7,8-bis(4-fluorophenoxy)-9-methyl-2-oxo-1,5-dioxonan-3-yl)carbamoyl)-4-methoxypyridin-3-yl acetate] | 80 to 100 | 80 to 100 | 80 to 100 | 0 to 80 |
| CCCO[C@H]1COC[C@H](NC(=O)c2nccc(OC)c2OCOC(C)=O)C(=O)O[C@@H](C)[C@@H]1Oc1ccccc1 [Compound 221] | 80 to 100 |  |  |  |
| COc1ccnc(C(=O)N[C@H]2COC[C@H](Oc3ccccc3)[C@@H](Oc3ccccc3)[C@H](C)OC2=O)c1OCOC(C)=O [Compound 84] | 80 to 100 | 80 to 100 | 0 to 80 | 0 to 80 |
| COc1ccnc(C(=O)N[C@H]2COC[C@H](OCCCc3ccccc3)[C@@H](OCCCc3ccccc3)[C@H](C)OC2=O)c1OCOC(C)=O [Compound 60] | 80 to 100 | 80 to 100 |  |  |
| COc1ccnc(C(=O)N[C@H]2COC[C@H](OCC(C)C)[C@@H](Oc3ccccc3)[C@H](C)OC2=O)c1OCOC(C)=O [Compound 85] | 80 to 100 | 80 to 100 | 80 to 100 | 0 to 80 |
